ChEMBL document CHEMBL1201862, “PubChem BioAssay data set” (2004)
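Following 48 hours of exposure in 96-well plates, responses at five concentrations were used to interpolate endpoints linearly. GI50 marks 50% less growth.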 The source made the active and inactive calls. Cut-off read from the data, not from the text of the source: active = GI50 up to about 1.1 µM and inactive = higher. Where a SMILES comes first, the peptide text is derived from it. The star is where a group is joined. Fmoc = O=C(OCC1c2ccccc2-c2ccccc21)*; Boc = CC(C)(C)OC(=O)*

Columns and labels:
Assay in all cases: growth of human tumour cells (NCI), 48 h
NCI-H460 = tested on: NCI-H460
OVCAR-8 = tested on: OVCAR-8
MDA-MB-435 = tested on: MDA-MB-435
HL-60 = tested on: HL-60
SK-MEL-28 = tested on: SK-MEL-28
TK-10 = tested on: TK-10
SF-295 = tested on: SF-295
SR = tested on: SR
HCC 2998 = tested on: HCC 2998
SK-OV-3 = tested on: SK-OV-3
CAKI-1 = tested on: CAKI-1
SNB-75 = tested on: SNB-75
UACC-62 = tested on: UACC-62
MOLT-4 = tested on: MOLT-4
PC-3 = tested on: PC-3
IGROV-1 = tested on: IGROV-1
U-251 = tested on: U-251
SN12C = tested on: SN12C
SF-268 = tested on: SF-268

Row | SMILES | GI50 (NCI-H460) | GI50 (OVCAR-8) | GI50 (MDA-MB-435) | GI50 (HL-60) | GI50 (SK-MEL-28) | GI50 (TK-10) | GI50 (SF-295) | GI50 (SR) | GI50 (HCC 2998) | GI50 (SK-OV-3) | GI50 (CAKI-1) | GI50 (SNB-75) | GI50 (UACC-62) | GI50 (MOLT-4) | GI50 (PC-3) | GI50 (IGROV-1) | GI50 (U-251) | GI50 (SN12C) | GI50 (SF-268)
1 | COc1ccc(C2c3c(-c4ccccc4)nn(-c4ccccc4)c3Oc3ncn(N)c(=N)c32)cc1OC (stereo not drawn) | 1.71 µM (inactive) | 2.1 µM (inactive) | 1.85 µM (inactive) | 2.62 µM (inactive) | 2 µM (inactive) | 1.95 µM (inactive) | 2.05 µM (inactive) | 3.53 µM (inactive) | 1.74 µM (inactive) | 6.53 µM (inactive) | 1.86 µM (inactive) | 1.62 µM (inactive) | 1.92 µM (inactive) | 3.41 µM (inactive) | 1.95 µM (inactive) | 1.51 µM (inactive) | 4.53 µM (inactive) | 2.51 µM (inactive) | 3.03 µM (inactive)
2 | CCOC(=O)C(SCCO)C(C(=O)OCC)n1cnc2c(=O)[nH]c(NC(C)=O)nc21 (stereo not drawn) | > 100 µM (inactive) | > 100 µM (inactive) | > 100 µM (inactive) | > 100 µM (inactive) | > 100 µM (inactive) | > 100 µM (inactive) | > 100 µM (inactive) | 21.4 µM (inactive) | > 100 µM (inactive) | > 100 µM (inactive) | > 100 µM (inactive) | > 100 µM (inactive) | > 100 µM (inactive) | > 100 µM (inactive) | > 100 µM (inactive) | > 100 µM (inactive) | > 100 µM (inactive) | > 100 µM (inactive) | > 100 µM (inactive)
3 | COc1ccc(/C=C/c2cc(=O)cc(/C=C/c3ccc(OC)c(O)c3)o2)cc1O | 2.21 µM (inactive) | 2.91 µM (inactive) | 0.971 µM (active) | 2 µM (inactive) | 3.56 µM (inactive) | 4.26 µM (inactive) | 3.52 µM (inactive) | 1.02 µM (active) | 1.78 µM (inactive) | 5.66 µM (inactive) | 3.55 µM (inactive) | 3.82 µM (inactive) | 1.75 µM (inactive) | 2.24 µM (inactive) | 3.26 µM (inactive) | 3.22 µM (inactive) | 1.94 µM (inactive) | 3.17 µM (inactive) | 3.02 µM (inactive)
4 | CCC1(O)C(=O)OCc2c1cc1n(c2=O)Cc2cc3ccccc3nc2-1 (stereo not drawn) | < 0.0403 µM (active) | 0.0653 µM (active) | 0.139 µM (active) | 0.017 µM (active) | 0.334 µM (active) | 6.73 µM (inactive) | < 0.01 µM (active) | < 0.01 µM (active) | 0.895 µM (active) | 0.0312 µM (active) | < 0.01 µM (active) | < 0.0215 µM (active) | 0.0128 µM (active) | < 0.01 µM (active) | 2.03 µM (inactive) | 0.0635 µM (active) | 0.0261 µM (active) | 0.0703 µM (active) | < 0.0168 µM (active)
5 | CCc1nc(N)nc(N)c1-c1ccc(Cl)c(/N=C/N(C)C)c1 | 5.22 µM (inactive) | 44.4 µM (inactive) | 45.9 µM (inactive) | > 39.7 µM (inactive) | > 100 µM (inactive) | > 100 µM (inactive) | 41.1 µM (inactive) | 31.1 µM (inactive) | 41.2 µM (inactive) | > 100 µM (inactive) | 53.8 µM (inactive) | > 96.4 µM (inactive) | 35.8 µM (inactive) | 34.8 µM (inactive) | 25.9 µM (inactive) | 27.1 µM (inactive) | 54.6 µM (inactive) | 91.4 µM (inactive) | 62.1 µM (inactive)
6 | CC(C)(C)OC(=O)NCCCCC(NC(=O)OCC1c2ccccc2-c2ccccc21)C(=O)N1CCCC1C(=O)NCC(N)=O (stereo not drawn) (Fmoc-Lys(Boc)-Pro-Gly-NH2; configuration not given here) | 20.3 µM (inactive) | 66.5 µM (inactive) | 27.6 µM (inactive) | 32.8 µM (inactive) | > 100 µM (inactive) | > 100 µM (inactive) | 78.3 µM (inactive) | 21.1 µM (inactive) | 58.2 µM (inactive) | 2.17 µM (inactive) | 16.4 µM (inactive) | 7.6 µM (inactive) | 46 µM (inactive) | 29.5 µM (inactive) | 27.9 µM (inactive) | 48.4 µM (inactive) | 18.5 µM (inactive) | 16.2 µM (inactive) | 95.5 µM (inactive)
7 | CCCOC(=O)c1cc(O)c(O)c(O)c1 [PROPYL GALLATE] | 30.1 µM (inactive) | 27.9 µM (inactive) | 19.3 µM (inactive) | > 100 µM (inactive) | 43.8 µM (inactive) | > 100 µM (inactive) | 47.5 µM (inactive) | > 100 µM (inactive) | 45.1 µM (inactive) | > 100 µM (inactive) | > 100 µM (inactive) | 40.3 µM (inactive) | 24.7 µM (inactive) | 5.83 µM (inactive) | 18.7 µM (inactive) | 31.3 µM (inactive) | 56.4 µM (inactive) | 22.4 µM (inactive) | 27.7 µM (inactive)
